Test results as given in ChEMBL document CHEMBL1150993, “Design of dual acting anticonvulsant-antimuscarinic succinimide and hydantoin derivatives” (Bioorg Med Chem Lett, 1997).
Several values for one entry are separate records, joined by “and”; a condition that tells them apart may be missing. Identical values can stand only once.

Columns and labels:
[1] = test system: Mus musculus; test: Anticonvulsant activity was determined in MES model, after 1 hour post administration in mice; assay type: functional
[2] = target: T1, Muscarinic acetylcholine receptor M1 (Rattus norvegicus, UniProt P08482); test: Displacement of [3H]pirenzepine from muscarinic M1 receptor of rat cortex homogenates.
T1 sequence (P08482 whole entry): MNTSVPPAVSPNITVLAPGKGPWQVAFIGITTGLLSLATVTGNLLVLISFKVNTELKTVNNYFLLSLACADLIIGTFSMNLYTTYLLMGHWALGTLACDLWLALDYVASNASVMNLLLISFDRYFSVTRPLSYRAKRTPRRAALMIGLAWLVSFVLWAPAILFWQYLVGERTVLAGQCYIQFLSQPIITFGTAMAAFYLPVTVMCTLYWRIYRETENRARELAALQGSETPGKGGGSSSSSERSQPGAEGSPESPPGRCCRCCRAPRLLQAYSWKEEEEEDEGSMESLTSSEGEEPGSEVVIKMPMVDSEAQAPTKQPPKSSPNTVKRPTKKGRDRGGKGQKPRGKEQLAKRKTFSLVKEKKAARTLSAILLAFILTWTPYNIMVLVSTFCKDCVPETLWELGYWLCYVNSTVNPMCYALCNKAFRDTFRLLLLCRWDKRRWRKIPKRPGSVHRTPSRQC

[3] = target: T2, Muscarinic acetylcholine receptor M2 (Rattus norvegicus, UniProt P10980); test: Displacement of [3H]QNB (quinuclidinyl benzylate) from muscarinic M2 receptor of rat heart homogenates.; assay type: tissue-based
T2 sequence (P10980 whole entry): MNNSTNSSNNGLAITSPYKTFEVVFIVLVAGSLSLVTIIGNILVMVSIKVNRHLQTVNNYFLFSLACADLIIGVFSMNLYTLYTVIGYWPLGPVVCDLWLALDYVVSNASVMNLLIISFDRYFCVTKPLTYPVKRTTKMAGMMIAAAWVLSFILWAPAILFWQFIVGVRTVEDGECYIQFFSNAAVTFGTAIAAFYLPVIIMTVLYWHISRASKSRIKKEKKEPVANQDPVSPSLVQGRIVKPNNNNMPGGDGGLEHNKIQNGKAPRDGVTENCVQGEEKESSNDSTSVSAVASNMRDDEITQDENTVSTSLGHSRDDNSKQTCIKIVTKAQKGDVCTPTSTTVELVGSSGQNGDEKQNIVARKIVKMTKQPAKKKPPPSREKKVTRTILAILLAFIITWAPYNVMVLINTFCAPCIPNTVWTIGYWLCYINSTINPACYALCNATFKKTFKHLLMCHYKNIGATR

| Structure (SMILES) | ED50 [1] | Ki [2] [µM] | Ki [3] [µM] |
| --- | --- | --- | --- |
| CCN(CC)CC#CCN1C(=O)CC(c2ccccc2)(c2ccccc2)C1=O | 20.1 mg/kg and 49 µmol/kg | 0.12 | 0.38 |
| CCN(CC)CC#CCN1C(=O)NC2(CCc3ccccc32)C1=O (stereo not drawn) | 55.4 mg/kg and 153 µmol/kg | 1.05 | > 10 |
| O=C1NC(c2ccccc2)(c2ccccc2)C(=O)N1CC#CCN1CCCC1 | – | 0.64 | > 10 |
| CCN(CC)CC#CCN1C(=O)CC2(C1=O)c1ccccc1-c1ccccc12 | 23.7 mg/kg and 58 µmol/kg | 1.63 | > 10 |
| CCN(CC)CC#CCN1C(=O)c2ccccc2C1=O | – | 0.03 | 0.1 |
| O=C1NC(=O)C(c2ccccc2)(c2ccccc2)N1 [PHENYTOIN] | 16.2 mg/kg | – | – |
| CCN(CC)CC#CCN1C(=O)CC2(CCc3ccccc32)C1=O (stereo not drawn) | – | 0.68 | > 10 |
| CCN(CC)CC#CCN1C(=O)CC2(C1=O)c1ccccc1CCc1ccccc12 | 9.6 mg/kg and 22 µmol/kg | 0.46 | 2.09 |
| O=C1CC2(CCc3ccccc32)C(=O)N1CC#CCN1CCCC1 (stereo not drawn) | > 600 mg/kg | 1.59 | > 10 |
| CC(C)N(CC#CCN1C(=O)CC(c2ccccc2)(c2ccccc2)C1=O)C(C)C | 17.5 mg/kg and 40 µmol/kg | 0.53 | 0.44 |
| CCN(CC)CC#CCN1C(=O)CC(c2ccccc2)C1=O (stereo not drawn) | 48.9 mg/kg and 126 µmol/kg | 2.3 | > 10 |
| CC(C)N(CC#CCN1C(=O)CC2(C1=O)c1ccccc1-c1ccccc12)C(C)C | – | 1.62 | > 10 |
| CCN(CC)CC#CCN1C(=O)NC(c2ccccc2)(c2ccccc2)C1=O | 83.6 mg/kg | 0.38 | 0.95 |
